Columns and labels:
Type in all cases: cell-based
A. Niger = test: Minimum inhibitory concentration (MIC) versus A. niger
Experimental: In the instance of anti-fungal activity, detailed analysis has been carried out with a prototypical pathogen, Trichophytone mentagrophytes. The testing was conducted and illustrates the activity of the ACQA agents that are the subject of this invention. A Time Kill (D-Value) study (ASTM protocol #1891-97 Standard Guide For Determination Of A Survival Curve For Antimicrobial Agents Against Selected Microorganisms And Calculation Of A D-value And Concentration Coefficient) was carried out to screen for the antifungal activity of glycopyrrolate (3%). Testing was done to determine the speed at which the product kills a representative test organism, which was Trichophyton mentagrophytes, a representative dermatophyte-causing species. Determination of the minimum inhibitory concentration (MIC) versus A. Niger, a prototypical fungi was also initiated. The vehicle was 65% water/35% ethanol.
(§1) Additional scientific investigation was completed to verify the drug class aspects of this invention. […] Specifically, Mepenzolate bromide and Ipratropium bromide were evaluated utilizing standardized microbiological test methods for minimum inhibitory concentration (MIC) versus A. niger and C. albicans. MICs in the range of 1% were observable, confirming the antifungal activity of this class of compound. Insofar as ipratropium is used for intranasal purposes, it is apparent that the discovered property is not predicted by any known attribute of this class of drugs.

C. albicans = test: Minimum inhibitory concentration (MIC) versus C. albicans
Experimental: as §1

[1] = system: Trichophyton mentagrophytes; test: Time Kill (D-Value) study, antifungal; settings: glycopyrrolate 3%, vehicle 65% water/35% ethanol
Text: (§2) In Vitro and in vivo tests can be used to show the efficacy of antimicrobial products. With appropriate controls and methods In Vitro tests are applicable to all products. The time-to-kill test is used to determine the killing kinetics and activity spectrum of antimicrobials. In this example, the test was, as is usual, performed in suspension. The principle is to place the product or agent in contact with an inoculum for a specified period of time. At the end of the contact time, the mixture is inactivated by dilution into neutralizing broth. Serial dilutions in appropriate broth are performed and the number of surviving bacterial observed on solid culture media. It is general practice to test agents so that the final concentration is representative of the use concentration of the product.
In the instance of anti-fungal activity, detailed analysis has been carried out with a prototypical pathogen, Trichophytone mentagrophytes. The testing was conducted and illustrates the activity of the ACQA agents that are the subject of this invention. A Time Kill (D-Value) study (ASTM protocol #1891-97 Standard Guide For Determination Of A Survival Curve For Antimicrobial Agents Against Selected Microorganisms And Calculation Of A D-value And Concentration Coefficient) was carried out to screen for the antifungal activity of glycopyrrolate (3%). […]

[2] = system: Corynebacterium vitaeruminis; test: Time Kill (D-Value) study, antibacterial; settings: glycopyrrolate 3%, vehicle 65% water/35% ethanol
Text: as §2
(§3) Similarly, In Vitro and In Vivo tests can be used to show the efficacy of antimicrobial products against bacterial species. Such a Time Kill (D-Value) study was conducted and illustrates the antibacterial activity of the ACQA agents that are the subject of this invention. In this case, the study was carried out to screen for the antibacterial activity of glycopyrrolate (3%) and triclosan (0.3%). Testing was done to determine the speed and MIC at which the product kills representative test organisms, which were Micrococcus luteous (syn ATTC 9341 changed to Kocuria rhizophila), Staphylococcos epidermidis and Corynebacterium vitaeruminis, representative odor-causing species. Once again, the vehicle was 65% water/35% ethanol.

[3] = system: Micrococcus luteous (syn ATTC 9341 changed to Kocuria rhizophila); test: Time Kill (D-Value) study, antibacterial; settings: glycopyrrolate 3%, vehicle 65% water/35% ethanol
Text: as §2, §3

[4] = system: Staphylococcos epidermidis; test: Time Kill (D-Value) study, antibacterial; settings: glycopyrrolate 3%, vehicle 65% water/35% ethanol
Text: as §2, §3

Row | SMILES | MIC versus A. niger (A. Niger) | MIC versus C. albicans (C. albicans) | time to antifungal effect over and above vehicle in D Value study [1] | time to kill in D Value study [2] | time to kill in D Value study [3] | time to kill in D Value study [4]
1 | CC(C)[N+]1(C)[C@@H]2CC[C@H]1CC(OC(=O)C(CO)c1ccccc1)C2.[Br-] (stereo partly drawn) [Ipratropium bromide] | ~1% | ~1% |  |  |  | 
2 | C[N+]1(C)CCCC(OC(=O)C(O)(c2ccccc2)c2ccccc2)C1 (stereo not drawn) [Mepenzolate bromide] | ~1% | ~1% |  |  |  | 
3 | C[N+]1(C)CCC(OC(=O)C(O)(c2ccccc2)C2CCCC2)C1 (stereo not drawn) [glycopyrrolate] | > 0.1% |  | 24 min | 4 min | 4 min | 4 min
